The source of these data is US11802111B2, “Cyclobutyl amide monoacylglycerol lipase modulators” (Janssen Pharmaceutica NV, priority 2020, dated 2023).

human MGL from HeLa cells, sequence (Q99685 whole entry): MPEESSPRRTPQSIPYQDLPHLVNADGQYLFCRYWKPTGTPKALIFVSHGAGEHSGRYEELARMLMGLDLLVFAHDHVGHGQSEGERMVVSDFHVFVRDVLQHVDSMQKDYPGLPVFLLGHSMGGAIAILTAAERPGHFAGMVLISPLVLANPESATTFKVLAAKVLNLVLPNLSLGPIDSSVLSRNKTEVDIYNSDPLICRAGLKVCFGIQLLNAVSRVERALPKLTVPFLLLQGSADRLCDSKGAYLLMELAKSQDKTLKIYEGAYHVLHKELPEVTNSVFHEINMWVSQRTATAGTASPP

The assay addresses human MGL from HeLa cells (Homo sapiens (Human), UniProt Q99685). Description: MGL in vitro activity assay ([glycerol-1,3-3H]-oleoyl glycerol hydrolysis, activated carbon filtration). To be noted: 300 nM [Glycerol-1,3-3H]-oleoyl glycerol, one hour. The format is biochemical. An outline of the steps: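 Endogenous human MGL in HeLa cells/homogenates incubated 1 h with test compounds and 300 nM [glycerol-1,3-3H]-oleoyl glycerol. Released 3H-glycerol passing an activated carbon filter counted as activity; screening at 10 μM compound, top IC50 concentration set empirically.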
Broadly, the IC50 is the midpoint of a concentration-inhibition curve. A high value points to lower potency. Take `Cc1cc(OC(F)F)cc(C2CCC3(C2)CN(C(=O)[C@H]2C[C@@](C)(O)C2)C3)c1` (mixture of isomers) [Example 84, (rac)-(6-(3-(Difluoromethoxy)-5-methylphenyl)-2-azaspiro[3.4]octan-2-yl)((1s,3s)-3-hydroxy-3-methylcyclobutyl)methanone]: half-maximal inhibition (IC50) was put at 47 nM. In turn, `C[C@H](c1ccccc1)[C@H]1CCC2(C1)CN(C(=O)[C@H]1C[C@@](C)(O)C1)C2` (relative stereo) [Example 339, ((1s,3*R)-3-Hydroxy-3-methylcyclobutyl)((*S)-6-((*S)-1-phenylethyl)-2-azaspiro[3.4]octan-2-yl)methanone] showed an IC50 of 48 nM. In turn, `Cc1cc(OC2CCC3(CC2)CN(C(=O)[C@H]2C[C@@](C)(O)C2)C3)nc(C)c1C(F)(F)F` [Example 465, (7-((4,6-Dimethyl-5-(trifluoromethyl)pyridin-2-yl)oxy)-2-azaspiro[3.5]nonan-2-yl)((1s,3s)-3-hydroxy-3-methylcyclobutyl)methanone] gave a concentration for half-maximal inhibition (IC50) of 2.7 nM. Regarding `Cc1c(C2CCC3(CC2)CN(C(=O)[C@H]2C[C@@](C)(O)C2)C3)ccnc1OC(C)C` [Example 376, ((1s,3s)-3-Hydroxy-3-methylcyclobutyl)(7-(2-isopropoxy-3-methylpyridin-4-yl)-2-azaspiro[3.5]nonan-2-yl)methanone], the IC50 stood at 17 nM. `Cc1c(OC2CCC3(C2)CN(C(=O)[C@H]2C[C@@](C)(O)C2)C3)cccc1C1CC1` (mixture of isomers) [Example 333, (rac)-(6-(3-Cyclopropyl-2-methylphenoxy)-2-azaspiro[3.4]octan-2-yl)((1s,3s)-3-hydroxy-3-methylcyclobutyl)methanone] registered an IC50 of 37 nM. Compound `COc1ccc(CC2CC3(C2)CN(C(=O)[C@H]2C[C@@](C)(O)C2)C3)c(C(F)F)c1` [Example 274, (6-(2-(Difluoromethyl)-4-methoxybenzyl)-2-azaspiro[3.3]heptan-2-yl)((1s,3s)-3-hydroxy-3-methylcyclobutyl)methanone] gave a half-maximal inhibitory concentration (IC50) of 6.2 nM.

`C[C@]1(O)C[C@@H](C(=O)N2CC3(CCC(Oc4ccc(F)c(C5CC5)c4)C3)C2)C1` (mixture of isomers) [Example 335, (rac)-(6-(3-Cyclopropyl-4-fluorophenoxy)-2-azaspiro[3.4]octan-2-yl)((1s,3s)-3-hydroxy-3-methylcyclobutyl)methanone] gave an IC50 of 116 nM. In the case of `C[C@]1(O)C[C@@H](C(=O)N2CC3(CCC(Cc4ccccc4)C3)C2)C1` (mixture of isomers) [Example 234, (rac)-(6-Benzyl-2-azaspiro[3.4]octan-2-yl)((1s,3s)-3-hydroxy-3-methylcyclobutyl)methanone], the IC50 came to 98 nM.

Compound `C[C@]1(O)C[C@@H](C(=O)N2CC3(CC[C@@H](c4ccc(OC(F)(F)F)cc4)C3)C2)C1` (stereo in doubt) [Example 53, ((1s,3*S)-3-Hydroxy-3-methylcyclobutyl)((*R)-6-(4-(trifluoromethoxy)phenyl)-2-azaspiro[3.4]octan-2-yl)methanone] displayed an IC50 of 10 nM. With `C[C@]1(O)C[C@@H](C(=O)N2CC3(CCC(Oc4ccc(C(F)(F)F)cn4)CC3)C2)C1` [Example 417, ((1s,3s)-3-Hydroxy-3-methylcyclobutyl)(7-((5-(trifluoromethyl)pyridin-2-yl)oxy)-2-azaspiro[3.5]nonan-2-yl)methanone] the figure was 29 nM; with `CC(C)(C)c1cncc(C2CCC3(CC2)CN(C(=O)[C@H]2C[C@@](C)(O)C2)C3)n1` [Example 377, (7-(6-(tert-Butyl)pyrazin-2-yl)-2-azaspiro[3.5]nonan-2-yl)((1s,3s)-3-hydroxy-3-methylcyclobutyl)methanone], 82 nM; with `C[C@]1(O)C[C@@H](C(=O)N2CC3(CCC(c4cccn5ccnc45)C3)C2)C1` (mixture of isomers) [Example 327, (rac)-((1s,3s)-3-Hydroxy-3-methylcyclobutyl)(6-(imidazo[1,2-c]pyridin-8-yl)-2-azaspiro[3.4]octan-2-yl)methanone], 3090 nM. `CC(C)n1cc2ccc(CC3CC4(C3)CN(C(=O)[C@H]3C[C@@](C)(O)C3)C4)cc2n1` [Example 308, ((1s,3s)-3-Hydroxy-3-methylcyclobutyl)(6-((2-isopropyl-2H-indazol-6-yl)methyl)-2-azaspiro[3.3]heptan-2-yl)methanone] registered an IC50 of 117 nM. In the case of `C[C@]1(O)C[C@@H](C(=O)N2CC3(CC[C@@H](c4ccc(C5CC5)cc4)C3)C2)C1` [Example 51, ((R)-6-(4-Cyclopropylphenyl)-2-azaspiro[3.4]octan-2-yl)((1s,3S)-3-hydroxy-3-methylcyclobutyl)methanone], the IC50 was 5.5 nM. On to `C[C@]1(O)C[C@@H](C(=O)N2CC3(CC(Cn4ccc5ccc(C(F)(F)F)nc54)C3)C2)C1` [Example 295, ((1s,3s)-3-Hydroxy-3-methylcyclobutyl)(6-((6-(trifluoromethyl)-1H-pyrrolo[2,3-b]pyridin-1-yl)methyl)-2-azaspiro[3.3]heptan-2-yl)methanone], for which the 50% inhibitory concentration (IC50) came out at 20 nM. To `C[C@]1(O)C[C@@H](C(=O)N2CC3(CCC(Cc4ccc(C5CC5)cc4)C3)C2)C1` (mixture of isomers) [Example 200, (rac)-(6-(4-Cyclopropylbenzyl)-2-azaspiro[3.4]octan-2-yl)((1s,3s)-3-hydroxy-3-methylcyclobutyl)methanone] belongs 6.9 nM; to `Cc1ccc(C(F)(F)F)c(CC2CC3(C2)CN(C(=O)[C@H]2C[C@@](C)(O)C2)C3)c1` [Example 211, ((1s,3s)-3-Hydroxy-3-methylcyclobutyl)(6-(5-methyl-2-(trifluoromethyl)benzyl)-2-azaspiro[3.3]heptan-2-yl)methanone], 4.1 nM; to `C[C@]1(O)C[C@@H](C(=O)N2CC3(CCC(c4cccc(C(F)(F)F)n4)C3)C2)C1` (mixture of isomers) [Example 110, (rac)-((1s,3s)-3-Hydroxy-3-methylcyclobutyl)(6-(6-(trifluoromethyl)pyridin-2-yl)-2-azaspiro[3.4]octan-2-yl)methanone], 435 nM. Compound `C[C@]1(O)C[C@@H](C(=O)N2CC3(CC[C@H](c4ccc(C5CC5)cc4)C3)C2)C1` [Example 50, ((S)-6-(4-Cyclopropylphenyl)-2-azaspiro[3.4]octan-2-yl)((1s,3R)-3-hydroxy-3-methylcyclobutyl)methanone] gave an IC50 of 9.7 nM.

In turn, `Cc1cc(C2CC2)ccc1C1CC2(C1)CN(C(=O)[C@H]1C[C@@](C)(O)C1)C2` [Example 28, (6-(4-Cyclopropyl-2-methylphenyl)-2-azaspiro[3.3]heptan-2-yl)((1s,3s)-3-hydroxy-3-methylcyclobutyl)methanone] came in with an IC50 of 125 nM. For the compound `Cc1ccc(C(F)(F)F)nc1OC1CCC2(CC1)CN(C(=O)[C@H]1C[C@@](C)(O)C1)C2` [Example 449, ((1s,3s)-3-Hydroxy-3-methylcyclobutyl)(7-((3-methyl-6-(trifluoromethyl)pyridin-2-yl)oxy)-2-azaspiro[3.5]nonan-2-yl)methanone], the IC50 amounted to 8.5 nM. The compound `C[C@]1(O)C[C@@H](C(=O)N2CC3(CC(Cn4ccc(C(F)(F)F)n4)C3)C2)C1` [Example 237, ((1s,3s)-3-Hydroxy-3-methylcyclobutyl)(6-((3-(trifluoromethyl)-1H-pyrazol-1-yl)methyl)-2-azaspiro[3.3]heptan-2-yl)methanone] showed an IC50 of 840 nM. With `CC(C)n1ccc2ccc(C3CCC4(CC3)CN(C(=O)[C@H]3C[C@@](C)(O)C3)C4)nc21` [Example 385, ((1s,3s)-3-Hydroxy-3-methylcyclobutyl)(7-(1-isopropyl-1H-pyrrolo[2,3-b]pyridin-6-yl)-2-azaspiro[3.5]nonan-2-yl)methanone], half-maximal inhibition (IC50) required 30 nM.

`C[C@]1(O)C[C@@H](C(=O)N2CC3(CC(Cc4ccc(OC5CC5)cc4)C3)C2)C1` [Example 272, (6-(4-Cyclopropoxybenzyl)-2-azaspiro[3.3]heptan-2-yl)((1s,3s)-3-hydroxy-3-methylcyclobutyl)methanone]: inhibition was half-maximal at 8.1 nM (IC50). Against the preceding compound, the IC50 is about 3.7-fold lower.

With `Cc1cc(C)cc([C@H]2CC[C@]3(CC2)CN(C(=O)[C@H]2C[C@@](C)(O)C2)[C@@H]3C)c1` (stereo in doubt) [Example 349, ((1*R,4r,7*R)-7-(3,5-Dimethylphenyl)-1-methyl-2-azaspiro[3.5]nonan-2-yl)((1s,3*S)-3-hydroxy-3-methylcyclobutyl)methanone], it took 523 nM to reach half-maximal inhibition (IC50).

The compound `Cc1ccc(CC2CC3(C2)CN(C(=O)[C@H]2C[C@@](C)(O)C2)C3)c(F)c1` [Example 230, (6-(2-Fluoro-4-methylbenzyl)-2-azaspiro[3.3]heptan-2-yl)((1s,3s)-3-hydroxy-3-methylcyclobutyl)methanone] had an IC50 of 6.4 nM. Regarding `COc1cc(F)cc(C2CCC3(CC2)CN(C(=O)[C@H]2C[C@@](C)(O)C2)C3)c1F` [Example 369, (7-(2,5-Difluoro-3-methoxyphenyl)-2-azaspiro[3.5]nonan-2-yl)((1s,3s)-3-hydroxy-3-methylcyclobutyl)methanone], 35 nM corresponded to half-maximal inhibition (IC50). In turn, `CN(C)c1cc(C2CCC3(CC2)CN(C(=O)[C@H]2C[C@@](C)(O)C2)C3)cc(C(F)(F)F)c1` [Example 123, (7-(3-(Dimethylamino)-5-(trifluoromethyl)phenyl)-2-azaspiro[3.5]nonan-2-yl)((1s,3s)-3-hydroxy-3-methylcyclobutyl)methanone] returned an IC50 of 27 nM. Compound `CC(C)c1c(CC2CC3(C2)CN(C(=O)[C@H]2C[C@@](C)(O)C2)C3)cccc1C(F)(F)F` [Example 210, ((1s,3s)-3-Hydroxy-3-methylcyclobutyl)(6-(2-isopropyl-3-(trifluoromethyl)benzyl)-2-azaspiro[3.3]heptan-2-yl)methanone] came in with an IC50 of 0.8 nM. With `Cc1cc(C)cc([C@H]2CC[C@@]3(CC2)CN(C(=O)[C@H]2C[C@@](C)(O)C2)[C@@H]3C)c1` (stereo in doubt) [Example 351, ((1*R,4s,7*S)-7-(3,5-Dimethylphenyl)-1-methyl-2-azaspiro[3.5]nonan-2-yl)((1s,3*S)-3-hydroxy-3-methylcyclobutyl)methanone] the figure was 77 nM.
